Source: patent US9474790B2, “Stable, protracted GLP-1/glucagon receptor co-agonists for medical use” (Novo Nordisk A/S, priority 2013, dated 2016)
Numbered stars: 1 amine (or outer) side, 2 acyl side, 3 side chain; on linkers, the order of the positions; unused ones are H or OH. Square brackets hold non-standard residues; d marks the D form. Side chains are listed from the residue outwards. Peptide text beside a SMILES is read from it. * marks the point of attachment. C18 diacid = O=C(O)CCCCCCCCCCCCCCCCC(=O)*; γGlu = O=C(O)[C@H](CCC(=O)[*:2])N[*:1]; Ac4c = NC1(C(=O)O)CCC1; AEEA = NCCOCCOCC(=O)O; Aib = CC(C)(N)C(=O)O

biological target: T1, human GLP-1 receptor (Homo sapiens, UniProt P43220); experiment: GLP-1 receptor binding, 125I-GLP-1 displacement SPA on isolated membranes; details: displacement of 125I-GLP-1 from membranes; read-out: IC50 GLP-1R
T1 construct: expressed in transfected cells; host or cells: BHK cells (parent BHKTS13), clone FCW467-12A/KZ10-1, with CRE luciferase
T1 sequence (P43220 24-463): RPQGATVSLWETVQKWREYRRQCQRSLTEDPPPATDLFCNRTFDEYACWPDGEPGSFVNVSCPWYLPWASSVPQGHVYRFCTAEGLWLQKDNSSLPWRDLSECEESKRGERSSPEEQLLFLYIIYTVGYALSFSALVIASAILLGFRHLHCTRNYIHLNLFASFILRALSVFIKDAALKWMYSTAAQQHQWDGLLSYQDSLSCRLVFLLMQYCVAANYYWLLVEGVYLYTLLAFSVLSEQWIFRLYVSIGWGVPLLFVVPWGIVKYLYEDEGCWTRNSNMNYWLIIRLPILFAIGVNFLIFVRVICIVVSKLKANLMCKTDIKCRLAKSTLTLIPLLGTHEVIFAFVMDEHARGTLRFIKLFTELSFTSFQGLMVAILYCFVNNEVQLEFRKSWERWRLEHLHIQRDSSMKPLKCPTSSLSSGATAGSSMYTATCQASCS
In short: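 SPA displacement of 125I-GLP-1(7-36)NH2 from membranes of BHK cells expressing human GLP-1 receptor, with WGA beads, in 50 mM HEPES, 5 mM EGTA, 5 mM MgCl2, 0.005% Tween 20, pH 7.4. Incubated 2 h at 30°C; IC50 by non-linear regression, run at ≤0.001% or 2.0% final serum albumin.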

| Compound | IC50 [nM] |
| --- | --- |
| CC(C)C[C@H](NC(=O)[C@H](Cc1ccc(O)cc1)NC(=O)[C@H](CCCCN)NC(=O)[C@H](CO)NC(=O)[C@H](CC(C)C)NC(=O)[C@H](CC(=O)O)NC(=O)[C@H](CO)NC(=O)[C@@H](NC(=O)[C@H](Cc1ccccc1)NC(=O)[C@@H](NC(=O)CNC(=O)[C@H](CCC(N)=O)NC(=O)C1(NC(=O)[C@@H](N)Cc2c[nH]cn2)CCC1)[C@@H](C)O)[C@@H](C)O)C(=O)N[C@@H](CCC(=O)O)C(=O)N[C@@H](CO)C(=O)N[C@@H](CCCNC(=N)N)C(=O)N[C@@H](CCCNC(=N)N)C(=O)N[C@@H](C)C(=O)N[C@@H](CCCNC(=N)N)C(=O)N[C@@H](CCC(=O)O)C(=O)N[C@@H](Cc1ccccc1)C(=O)N[C@H](C(=O)N[C@@H](CCC(N)=O)C(=O)N[C@@H](Cc1c[nH]c2ccccc12)C(=O)N[C@@H](CC(C)C)C(=O)N[C@@H](CC(C)C)C(=O)N[C@@H](CCCCNC(=O)CC[C@H](NC(=O)CC[C@H](NC(=O)COCCOCCNC(=O)COCCOCCNC(=O)CC[C@H](NC(=O)CC[C@H](NC(=O)CCCCCCCCCCCCCCCCC(=O)O)C(=O)O)C(=O)O)C(=O)O)C(=O)O)C(=O)N[C@H](C(N)=O)[C@@H](C)O)C(C)C [Example 61, N^ε28-[(4S)-4-carboxy-4-[[(4S)-4-carboxy-4-[[2-[2-[2-[[2-[2-[2-[[(4S)-4-carboxy-4-[[(4S)-4-carboxy-4-(17-carboxyheptadecanoylamino)butanoyl]amino]butanoyl]amino]ethoxy]ethoxy]acetyl]amino]ethoxy]ethoxy]acetyl]amino]butanoyl]amino]butanoyl]-[Acb2,Leu10,Glu15,Arg20,Glu21,Leu27,Lys28]-Glucagon amide] (H-H[Ac4c]QGTFTSDLSKYLESRRAREFVQWLLK([γGlu-γGlu-AEEA-AEEA-γGlu-γGlu-C18 diacid])T-NH2; N-terminus assumed) | 0.3 |
| CC(C)C[C@H](NC(=O)[C@H](Cc1ccc(O)cc1)NC(=O)[C@H](CCCCN)NC(=O)[C@H](CO)NC(=O)[C@H](CC(C)C)NC(=O)[C@H](CC(=O)O)NC(=O)[C@H](CO)NC(=O)[C@@H](NC(=O)[C@H](Cc1ccccc1)NC(=O)[C@@H](NC(=O)CNC(=O)[C@H](CCC(N)=O)NC(=O)C(C)(C)NC(=O)[C@@H](N)Cc1c[nH]cn1)[C@@H](C)O)[C@@H](C)O)C(=O)N[C@@H](CCC(=O)O)C(=O)N[C@@H](CO)C(=O)N[C@@H](CCCNC(=N)N)C(=O)N[C@@H](CCCNC(=N)N)C(=O)N[C@@H](C)C(=O)N[C@@H](CCCNC(=N)N)C(=O)N[C@@H](CCC(=O)O)C(=O)N[C@@H](Cc1ccccc1)C(=O)N[C@H](C(=O)N[C@@H](CCC(N)=O)C(=O)N[C@@H](Cc1c[nH]c2ccccc12)C(=O)N[C@@H](CC(C)C)C(=O)N[C@@H](CC(C)C)C(=O)N[C@@H](CCCCNC(=O)CC[C@H](NC(=O)CC[C@H](NC(=O)COCCOCCNC(=O)COCCOCCNC(=O)CC[C@H](NC(=O)CCCCCCCCCCCCCCCCC(=O)O)C(=O)O)C(=O)O)C(=O)O)C(=O)N[C@H](C(N)=O)[C@@H](C)O)C(C)C [Example 23, N^ε28-[(4S)-4-carboxy-4-[[(4S)-4-carboxy-4-[[2-[2-[2-[[2-[2-[2-[[(4S)-4-carboxy-4-(17-carboxyheptadecanoylamino)butanoyl]amino]ethoxy]ethoxy]acetyl]amino]ethoxy]ethoxy]acetyl]amino]butanoyl]amino]butanoyl]-[Aib2,Leu10,Glu15,Arg20,Glu21,Leu27,Lys28]-Glucagon amide] (H-H[Aib]QGTFTSDLSKYLESRRAREFVQWLLK([γGlu-γGlu-AEEA-AEEA-γGlu-C18 diacid])T-NH2; N-terminus assumed) | 0.3 |
| CC(C)C[C@H](NC(=O)[C@H](Cc1ccc(O)cc1)NC(=O)[C@H](CCCCN)NC(=O)[C@H](CO)NC(=O)[C@H](CC(C)C)NC(=O)[C@H](CC(=O)O)NC(=O)[C@H](CO)NC(=O)[C@@H](NC(=O)[C@H](Cc1ccccc1)NC(=O)[C@@H](NC(=O)CNC(=O)[C@H](Cc1c[nH]cn1)NC(=O)C(C)(C)NC(=O)[C@@H](N)Cc1c[nH]cn1)[C@@H](C)O)[C@@H](C)O)C(=O)N[C@@H](CCC(=O)O)C(=O)N[C@@H](CO)C(=O)N[C@@H](CCCNC(=N)N)C(=O)N[C@@H](CCCNC(=N)N)C(=O)N[C@@H](C)C(=O)N[C@@H](CCCNC(=N)N)C(=O)N[C@@H](CCC(=O)O)C(=O)N[C@@H](Cc1ccccc1)C(=O)N[C@H](C(=O)N[C@@H](CCC(N)=O)C(=O)N[C@@H](Cc1c[nH]c2ccccc12)C(=O)N[C@@H](CC(C)C)C(=O)N[C@@H](CC(C)C)C(=O)N[C@@H](CCCCNC(=O)CC[C@H](NC(=O)CC[C@H](NC(=O)COCCOCCNC(=O)COCCOCCNC(=O)CC[C@H](NC(=O)CCCCCCCCCCCCCCCCC(=O)O)C(=O)O)C(=O)O)C(=O)O)C(=O)N[C@H](C(N)=O)[C@@H](C)O)C(C)C [Example 33, N^ε28-[(4S)-4-carboxy-4-[[(4S)-4-carboxy-4-[[2-[2-[2-[[2-[2-[2-[[(4S)-4-carboxy-4-(17-carboxyheptadecanoylamino)butanoyl]amino]ethoxy]ethoxy]acetyl]amino]ethoxy]ethoxy]acetyl]amino]butanoyl]amino]butanoyl]-[Aib2,His3,Leu10,Glu15,Arg20,Glu21,Leu27,Lys28]-Glucagon amide] (H-H[Aib]HGTFTSDLSKYLESRRAREFVQWLLK([γGlu-γGlu-AEEA-AEEA-γGlu-C18 diacid])T-NH2; N-terminus assumed) | 0.6 |

More lines, in order of falling IC50, values ahead:

| IC50 [nM] | Compound |
| --- | --- |
| 0.5 | CC(C)C[C@H](NC(=O)[C@H](Cc1ccc(O)cc1)NC(=O)[C@H](CCCCN)NC(=O)[C@H](CO)NC(=O)[C@H](CC(C)C)NC(=O)[C@H](CC(=O)O)NC(=O)[C@H](CO)NC(=O)[C@@H](NC(=O)[C@H](Cc1ccccc1)NC(=O)[C@@H](NC(=O)CNC(=O)[C@H](CCC(N)=O)NC(=O)C(C)(C)NC(=O)[C@@H](N)Cc1c[nH]cn1)[C@@H](C)O)[C@@H](C)O)C(=O)N[C@@H](CC(=O)O)C(=O)N[C@@H](C)C(=O)N[C@@H](CCCNC(=N)N)C(=O)N[C@@H](CCCNC(=N)N)C(=O)N[C@@H](C)C(=O)N[C@@H](CCCNC(=N)N)C(=O)N[C@@H](CC(=O)O)C(=O)N[C@@H](Cc1ccccc1)C(=O)N[C@H](C(=O)N[C@@H](CCC(N)=O)C(=O)N[C@@H](Cc1c[nH]c2ccccc12)C(=O)N[C@@H](CC(C)C)C(=O)N[C@@H](CC(C)C)C(=O)N[C@@H](CC(N)=O)C(=O)N[C@@H](CCCCNC(=O)CC[C@H](NC(=O)CC[C@H](NC(=O)COCCOCCNC(=O)COCCOCCNC(=O)CC[C@H](NC(=O)CCCCCCCCCCCCCCCCC(=O)O)C(=O)O)C(=O)O)C(=O)O)C(N)=O)C(C)C [Example 65] (H-H[Aib]QGTFTSDLSKYLDARRARDFVQWLLNK([γGlu-γGlu-AEEA-AEEA-γGlu-C18 diacid])-NH2; N-terminus assumed) |
| 0.2 | CC(C)C[C@H](NC(=O)[C@H](Cc1ccc(O)cc1)NC(=O)[C@H](CCCCN)NC(=O)[C@H](CO)NC(=O)[C@H](CC(C)C)NC(=O)[C@H](CC(=O)O)NC(=O)[C@H](CO)NC(=O)[C@@H](NC(=O)[C@H](Cc1ccccc1)NC(=O)[C@@H](NC(=O)CNC(=O)[C@H](CCC(N)=O)NC(=O)C(C)(C)NC(=O)[C@@H](N)Cc1c[nH]cn1)[C@@H](C)O)[C@@H](C)O)C(=O)N[C@@H](CCC(=O)O)C(=O)N[C@@H](CO)C(=O)N[C@@H](CCCCN)C(=O)N[C@@H](CCCNC(=N)N)C(=O)N[C@@H](C)C(=O)N[C@@H](CCCNC(=N)N)C(=O)N[C@@H](CO)C(=O)N[C@@H](Cc1ccccc1)C(=O)N[C@H](C(=O)N[C@@H](CCC(N)=O)C(=O)N[C@@H](Cc1c[nH]c2ccccc12)C(=O)N[C@@H](CC(C)C)C(=O)N[C@@H](CC(C)C)C(=O)N[C@@H](CCCCNC(=O)CC[C@H](NC(=O)CC[C@H](NC(=O)[C@H](CO)NC(=O)[C@H](CCC(=O)O)NC(=O)[C@H](CO)NC(=O)CC[C@H](NC(=O)CC[C@H](NC(=O)CCCCCCCCCCCCCCCCC(=O)O)C(=O)O)C(=O)O)C(=O)O)C(=O)O)C(=O)N[C@H](C(N)=O)[C@@H](C)O)C(C)C [Example 69, N^ε28-[(4S)-4-carboxy-4-[[(4S)-4-carboxy-4-[[(2S)-2-[[(2S)-4-carboxy-2-[[(2S)-2-[[(4S)-4-carboxy-4-[[(4S)-4-carboxy-4-(17-carboxyheptadecanoylamino)butanoyl]amino]butanoyl]amino]-3-hydroxypropanoyl]amino]butanoyl]amino]-3-hydroxypropanoyl]amino]butanoyl]amino]butanoyl]-[Aib2,Leu10,Glu15,Lys17,Arg20,Ser21,Leu27,Lys28]-Glucagon amide] (H-H[Aib]QGTFTSDLSKYLESKRARSFVQWLLK([γGlu-γGlu-Ser-Glu-Ser-γGlu-γGlu-C18 diacid])T-NH2; N-terminus assumed) |
| 0.2 | CC(C)C[C@H](NC(=O)[C@H](Cc1ccc(O)cc1)NC(=O)[C@H](CCCNC(=N)N)NC(=O)[C@H](CO)NC(=O)[C@H](CC(C)C)NC(=O)[C@H](CC(=O)O)NC(=O)[C@H](CO)NC(=O)[C@@H](NC(=O)[C@H](Cc1ccccc1)NC(=O)[C@@H](NC(=O)CNC(=O)[C@H](CCC(N)=O)NC(=O)C(C)(C)NC(=O)[C@@H](N)Cc1c[nH]cn1)[C@@H](C)O)[C@@H](C)O)C(=O)N[C@@H](CC(=O)O)C(=O)N[C@@H](C)C(=O)N[C@@H](CCCNC(=N)N)C(=O)N[C@@H](CCCNC(=N)N)C(=O)N[C@@H](C)C(=O)N[C@@H](CCCNC(=N)N)C(=O)N[C@@H](CC(=O)O)C(=O)N[C@@H](Cc1ccccc1)C(=O)N[C@H](C(=O)N[C@@H](CCC(N)=O)C(=O)N[C@@H](Cc1c[nH]c2ccccc12)C(=O)N[C@@H](CC(C)C)C(=O)N[C@@H](CC(C)C)C(=O)N[C@@H](CCCCNC(=O)CC[C@H](NC(=O)CC[C@H](NC(=O)CC[C@H](NC(=O)CCCCCCCCCCCCCCCCC(=O)O)C(=O)O)C(=O)O)C(=O)O)C(=O)N[C@H](C(N)=O)[C@@H](C)O)C(C)C [Example 62, N^ε28-[(4S)-4-carboxy-4-[[(4S)-4-carboxy-4-[[(4S)-4-carboxy-4-(17-carboxyheptadecanoylamino)butanoyl]amino]butanoyl]amino]butanoyl]-[Aib2,Leu10,Arg12,Ala16,Arg20,Leu27,Lys28]-Glucagon amide] (H-H[Aib]QGTFTSDLSRYLDARRARDFVQWLLK([γGlu-γGlu-γGlu-C18 diacid])T-NH2; N-terminus assumed) |
